Experimental data from ChEMBL document CHEMBL4342418, “1,2,3-Triazole-containing hybrids as potential anticancer agents: Current developments, action mechanisms and structure-activity relationships” (Eur J Med Chem, 2019).
pIC50: −log10 of the molar value.

Assays:
DU-145 [1] = test: Antiproliferative activity against human DU145 cells by SRB assay; assay type: functional, cell-based
HeLa [2] = test: Antiproliferative activity against human HeLa cells by SRB assay; assay type: functional, cell-based
HepG2 [3] = test: Antiproliferative activity against human HepG2 cells by SRB assay; assay type: functional, cell-based
A549 [4] = test: Antiproliferative activity against human A549 cells by SRB assay; assay type: functional, cell-based
SK-OV-3 = test: Antiproliferative activity against human SKOV3 cells by SRB assay; assay type: functional, cell-based
MCF7 [5] = test: Antiproliferative activity against human MCF7 cells by SRB assay; assay type: functional, cell-based
MCF7-DOX = test: Antiproliferative activity against human MCF7/Dox cells by SRB assay; assay type: functional, cell-based
HepG2 [6] = test: Potency index, ratio of etoposide IC50 to test compound IC50 for antiproliferative activity against human HepG2 cells by SRB assay; assay type: functional; details: pooled result: one value given for 7 cell lines, strains, targets or settings
MCF7 [7] = test: cells; assay type: functional, cell-based; details: Homo sapiens
Description: Antiproliferative activity against human MCF7 cells by MTT assay

A549 [8] = test: cells; assay type: functional, cell-based; details: Homo sapiens
Description: Antiproliferative activity against human A549 cells by MTT assay

HeLa [9] = test: Antiproliferative activity against human HeLa cells by MTT assay; assay type: functional, cell-based
DU-145 [10] = test: Antiproliferative activity against human DU145 cells by MTT assay; assay type: functional, cell-based
B16 = test: Antiproliferative activity against mouse B16 cells by MTT assay; assay type: functional, cell-based
MGC-803 = test: Antiproliferative activity against human MGC803 cells by MTT assay; assay type: functional, cell-based
NCI-H460 = test: Antiproliferative activity against human H460 cells by MTT assay; assay type: functional, cell-based
NCI-H1299 = test: Antiproliferative activity against human H1299 cells by MTT assay; assay type: functional, cell-based
Ca-Ski = test: Antiproliferative activity against human CaSki cells by MTT assay; assay type: functional, cell-based
MCF7 [11] = test: Antiproliferative activity against human MCF7 cells assessed as reduction in cell viability after 72 hrs by MTT assay; assay type: functional, cell-based; details: MCF7, 72 h
MDA-MB-231 [12] = test: Antiproliferative activity against human MDA-MB-231 cells assessed as reduction in cell viability after 72 hrs by MTT assay; assay type: functional, cell-based; details: MDA-MB-231, 72 h, read-out: IC50
MDA-MB-468 [13] = test: Antiproliferative activity against human MDA-MB-468 cells assessed as reduction in cell viability after 72 hrs by MTT assay; assay type: functional, cell-based; details: MDA-MB-468, 72 h
MDA-MB-231 [14] = test: Potency index, ratio of 5-fluorouracil IC50 to test compound IC50 for antiproliferative activity against human MDA-MB-231 cells; assay type: functional
MDA-MB-468 [15] = test: Potency index, ratio of 5-fluorouracil IC50 to test compound IC50 for antiproliferative activity against human MDA-MB-468 cells; assay type: functional
MCF7 [16] = test: Potency index, ratio of 5-fluorouracil IC50 to test compound IC50 for antiproliferative activity against human MCF7 cells; assay type: functional
HepG2 [17] = test: Antiproliferative activity against human HepG2 cells by MTT assay; assay type: functional, cell-based
NIH3T3 = test: Antiproliferative activity against mouse NIH/3T3 cells by MTT assay; assay type: functional, cell-based
HeLa [18] = test: Potency index, ratio of podophyllotoxin IC50 to test compound IC50 for antiproliferative activity against human HeLa cells; assay type: functional
MCF7 [19] = test: Potency index, ratio of podophyllotoxin IC50 to test compound IC50 for antiproliferative activity against human MCF7 cells; assay type: functional
DU-145 [20] = test: Potency index, ratio of podophyllotoxin IC50 to test compound IC50 for antiproliferative activity against human DU145 cells; assay type: functional
A549 [21] = test: Potency index, ratio of podophyllotoxin IC50 to test compound IC50 for antiproliferative activity against human A549 cells; assay type: functional
HepG2 [22] = test: Potency index, ratio of podophyllotoxin IC50 to test compound IC50 for antiproliferative activity against human HepG2 cells; assay type: functional
HCT-116 = test: Antiproliferative activity against human HCT116 cells by MTT assay; assay type: functional, cell-based
PC-3 = test: Antiproliferative activity against human PC3 cells by MTT assay; assay type: functional, cell-based
K562 = test: Antiproliferative activity against human K562 cells by MTT assay; assay type: functional, cell-based
U-251 = test: Antiproliferative activity against human U251 cells by MTT assay; assay type: functional, cell-based
SK-BR-3 = test: Antiproliferative activity against human SKBR3 cells by MTT assay; assay type: functional, cell-based
[23] = Antiproliferative activity against human SMCC7721 cells by MTT assay; assay type: functional, cell-based
LNCaP = test: Antiproliferative activity against human LNCAP cells by MTT assay; assay type: functional, cell-based
K562/Adr = test: Antiproliferative activity against human K562/ADR cells by MTT assay; assay type: functional, cell-based
HFF = test: Antiproliferative activity against human HFF cells by MTT assay; assay type: cell-based
L02 = test: Antiproliferative activity against human HL7702 cells by MTT assay; assay type: cell-based

CO/N=C1\C(=O)N(CCOCCn2cc(CN3C(=O)/C(=N\OC)c4ccccc43)nn2)c2ccccc21
1.55: Ratio IC50 (HepG2 [6])
5.00 to 6.74: pIC50 (DU-145 [1]) | pIC50 (HeLa [2]) | pIC50 (HepG2 [3]) | pIC50 (A549 [4]) | pIC50 (SK-OV-3) | pIC50 (MCF7 [5]) | pIC50 (MCF7-DOX)

CCc1ccc(-c2cn(CCNC3=C(C)C(=O)c4ccccc4C3=O)nn2)cc1
4.58 to 5.10: pIC50 (MCF7 [7]) | pIC50 (A549 [8]) | pIC50 (HeLa [9]) | pIC50 (DU-145 [10]) | pIC50 (B16)

CO[C@H]1C[C@@H]2CC[C@@H](C)[C@@](O)(O2)C(=O)C(=O)N2CCCC[C@H]2C(=O)O[C@H]([C@H](C)C[C@@H]2CC[C@@H](OCCCn3cc(CNc4ccc(Cl)cc4Cl)nn3)[C@H](OC)C2)CC(=O)[C@H](C)/C=C(\C)[C@@H](O)[C@@H](OC)C(=O)[C@H](C)C[C@H](C)/C=C/C=C/C=C/1C
4.59 to 5.22: pIC50 (MGC-803) | pIC50 (NCI-H460) | pIC50 (NCI-H1299) | pIC50 (Ca-Ski)

COc1cc(Cn2cc(CN3c4ccccc4Sc4ccccc43)nn2)cc(OC)c1OC
6.2 - 15.8: Ratio IC50 (MDA-MB-231 [14]) | Ratio IC50 (MDA-MB-468 [15]) | Ratio IC50 (MCF7 [16])
5.77 to 6.10: pIC50 (MCF7 [11]) | pIC50 (MDA-MB-231 [12]) | pIC50 (MDA-MB-468 [13])

COc1cc([C@@H]2c3cc4c(cc3[C@H](NC(=O)c3cn(-c5ccc(Cl)cc5)nn3)[C@H]3COC(=O)[C@H]23)OCO4)cc(OC)c1OC
3.8 - 8.5: Ratio IC50 (HeLa [18]) | Ratio IC50 (MCF7 [19]) | Ratio IC50 (DU-145 [20]) | Ratio IC50 (A549 [21]) | Ratio IC50 (HepG2 [22])
5.92 to 6.15: pIC50 (MCF7 [7]) | pIC50 (HepG2 [17]) | pIC50 (A549 [8]) | pIC50 (HeLa [9]) | pIC50 (DU-145 [10]) | pIC50 (NIH3T3)

COC(=O)c1ccc(-c2cn(CC(=O)O[C@H]3c4cc5c(cc4[C@@H](c4cc(OC)c(OC)c(OC)c4)[C@H]4C(=O)OC[C@@H]43)OCO5)nn2)cc1
4.26 to 4.71: pIC50 (HCT-116) | pIC50 (K562) | pIC50 (U-251) | pIC50 (SK-BR-3) | pIC50 [23] | pIC50 (LNCaP) | pIC50 (K562/Adr)
3.71: pIC50 (HFF)
3.25: pIC50 (L02)
3.91 to 4.68: pIC50 (MCF7 [7]) | pIC50 (A549 [8]) | pIC50 (PC-3)
